Non-standard residues stand in square brackets, D forms with d. No end group written: not given here. *: point of attachment. FITC = O=C1OC2(c3ccc(O)cc3Oc3cc(O)ccc32)c2ccc(NC(=S)*)cc21; Ahx = NCCCCCC(=O)O

The subject of assay [1] is Gin-1 cells. Briefly: Test of inducing cell-death in vitro (Calcein-AM/PI dead cell rate). It counts as cell-based, human. Particulars: 50 μg/mL, 9 days. The text has this: (§1) Human fibrosarcoma-derived HT-1080 cells (HT-1080 cells, JCRB cell bank) were used as cancer cells in the test for monitoring changes in mitochondrial membrane potential. HT-1080 cells, human osteosarcoma cell line Hos cells (Hos cells, JCRB cell bank), human histiocytic lymphoma/macrophage U937 cells (U937 cells, JCRB cell bank), human myeloid leukemia HL-60 cells (HL-60 cells, JCRB cell bank), acute monocytic leukemia THP-1 cells (THP-1 cells, JCRB cell bank), human alveolar basal epithelial adenocarcinoma cell A549 cells (A549 cells, Cell Resource Center for Biomedical Research, Institute of Development, Aging and Cancer, Tohoku University), human pancreatic carcinoma cells (MIA Paca 2 cells, Cell Resource Center for Biomedical Research, Institute of Development, Aging and Cancer, Tohoku University) and well differentiated human liver carcinoma-derived cell line HuH7 cells (HuH7 cells, Cell Resource Center for Biomedical Research, Institute of Development, Aging and Cancer, Tohoku University) were used as cancer cells in an in vitro cell-death induction test of cancer cells and a nuclear transport test of Example 2. Normal human gingival fibroblast cells Gin-1 (Gin-1 cells, DS Pharma Biomedical) were used as a control. The above-described cells were each inoculated into a 96-well culture plate (Falcon) at 5,000 cells/[…] and subjected to the following tests.
(§2) The peptide of SEQ ID NO: 1 labeled with FITC (Example 2) was used for the test of inducing cell-death in vitro in cancer cells. It was prepared the test example to which 100 μL of Example 2 and further 10% FBS were added and cultured for 9 days under conditions of 200 μL of serum-supplemented medium (Alpha modification of Eagle's MEM (α-MEM) (Thermo Fisher Scientific)+10% FBS). Furthermore, it was also produced the test example that was cultured for 21 days with the whole amount of Example 2-supplemented medium replaced every 7 days. As a control, the cells were cultured in a serum-supplemented medium (α-MEM+10% FBS) without addition and were used. A supernatant was removed after the completion of the culture. The cells were washed once with PBS and stained in PBS to which a fluorescent dye for living cell staining Calcein-AM (DOJINDO LABORATORIES) (final concentration: 0.1 μg/mL) and a fluorescent dye for dead cell staining Propidium Iodide (PI) (DOJINDO LABORATORIES) (final concentration: 0.3 μg/mL) were added, at 37° C. in a 5% CO2 cell incubator for 30 minutes. The living cells and dead cells were separately stained with Calcein-AM and PI, respectively and imaged with the confocal laser scanning microscope LSM800. Next, the dead cell rate relative to the number of total cells was analyzed using ImageJ.
(§3) The results are represented by the average value of the dead cell rate (the number red cells stained with IP/the number of total cells×100(%))±standard deviation (SD). In FIG. 2A, the vertical axis represents the rate of cell death when each cell was cultured with Example 2 (50 μg/mL) for 9 days and the horizontal axis represents various types of cells. The increase in the dead cell rate of the Gin-1 cells was not observed.

Assay [2] concerns HL-60 cells. The assay is described as above. It counts as cell-based, human. The settings on record: 50 μg/mL, 9 days.
From the text: as §1, §2, §3

Assay [3] deals with Hos cells. The assay is described as above. The assay is classed as cell-based, human. Particulars: 50 μg/mL, 9 days.
From the text: as §1, §2, §3

Assay [4] relates to THP-1 cells. Described as above. The assay is classed as cell-based, human. The settings on record: 50 μg/mL, 9 days.
From the text: as §1, §2, §3

In assay [5] the test system is U937 cells. The description is as above. It counts as cell-based, human. Particulars: 50 μg/mL, 9 days.
From the text: as §1, §2, §3

Another assay concerns the target T1, CD13 on HT-1080 cells (Homo sapiens, UniProt P15144).
T1 construct: endogenous in cells; host or cells: HT-1080 cells
Briefly: Binding test to cell membrane (confocal, CD13 co-staining). The assay is classed as cell-based. The settings on record: 1 μg/100 μL, 4° C., 1 hour. How it is done: (§4) A PE-labeled human CD13 antibody (Clone: WM-15 Biolegend) ([…]) and Example 2 (1 μg/100 μL) were added to each of the cells (500,000 cells/[…]), and the cells were stained at 4° C. for 1 hour. After the cells were washed with PBS, CD13 expression of each cell and binding site of Example 2 were observed as the standard of the fluorescence intensity of the HT-1080 cells using the confocal laser scanning microscope LSM800. The expression of CD13 (red) was strongest and the luminescence of Example 2 (green) was also strong in the HT-1080 and Gin-1 cells. […] Further, the same phenomenon about CD13 expression was also recognized in the U937, HL-60, THP-1 and Hos cells (not shown).

The target of another assay is T2, CD13 on Gin-1 cells (Homo sapiens, UniProt P15144).
T2 construct: endogenous in cells; host or cells: Gin-1 cells
The assay is described as above. The assay is classed as cell-based. Particulars: 1 μg/100 μL, 4° C., 1 hour. As for the experimental part: as §4

In assay [6] the test system is Gin-1 cells. Briefly: Test on nuclear transport (confocal Z scan, DAPI). The assay is classed as cell-based, human. Particulars: 50 μg/mL, 9 days.
From the text: as §1
(§5) Further, 50 μg/mL of Example 2 was added to the Gin-1 or above cancer cells. The cells were cultured for 9 days and scanned with Z scan technique using the confocal laser scanning microscope LSM800 after dyed with DAPI. FIG. 5A is each photograph of XY, XZ and YZ cross sections that was merged with Example 2 (green) and DAPI (blue) in the Gin-1 or above-described cancer cells. […] The color of the images merged with the Example 2 and DAPI dye took on light blue in the U937, H1-60, THP-1 and Hos cells.

For assay [7], the system named is HL-60 cells. Briefly: Test on nuclear transport (confocal Z scan, DAPI). It counts as cell-based, human. The settings on record: H1-60 cells, 50 μg/mL, 9 days.
From the text: as §1, §5

Assay [8] concerns Hos cells. Briefly: Test on nuclear transport (confocal Z scan, DAPI). It counts as cell-based, human. The settings on record: 50 μg/mL, 9 days.
From the text: as §1, §5

For assay [9], the system named is THP-1 cells. Briefly: Test on nuclear transport (confocal Z scan, DAPI). Particulars: 50 μg/mL, 9 days. The assay is classed as cell-based, human.
From the text: as §1, §5

Assay [10] has as its system U937 cells. Briefly: Test on nuclear transport (confocal Z scan, DAPI). The assay is classed as cell-based, human. Particulars: 50 μg/mL, 9 days.
From the text: as §1, §5

The next assay concerns HuH7 cells. Briefly: Test of inducing cell-death in vitro (Calcein-AM/PI dead cell rate). It counts as cell-based, human.
From the text: as §1, §2
(§6) The amount of administration of Example 2 was adjusted to 50 μg/mL and was used for 9-, 16- or 23-day administration test in the A549, MIA Paca2 or HuH7 cells by the same method as in Test Example 2A above. The cell staining and subsequent analyses of the dead cell rate relative to the number of total cells were performed in the same manner as Test Example 2A above.

A further assay deals with A549 cells. The description is as above. It counts as cell-based, human. The settings on record: for dead cell rate: 50 μg/mL.
From the text: as §1, §2, §6

In a further assay the test system is MIA Paca2 cells. The description is as above. It counts as cell-based, human. The settings on record: for dead cell rate: 50 μg/mL.
From the text: as §1, §2, §6

T2 sequence (P15144 whole entry): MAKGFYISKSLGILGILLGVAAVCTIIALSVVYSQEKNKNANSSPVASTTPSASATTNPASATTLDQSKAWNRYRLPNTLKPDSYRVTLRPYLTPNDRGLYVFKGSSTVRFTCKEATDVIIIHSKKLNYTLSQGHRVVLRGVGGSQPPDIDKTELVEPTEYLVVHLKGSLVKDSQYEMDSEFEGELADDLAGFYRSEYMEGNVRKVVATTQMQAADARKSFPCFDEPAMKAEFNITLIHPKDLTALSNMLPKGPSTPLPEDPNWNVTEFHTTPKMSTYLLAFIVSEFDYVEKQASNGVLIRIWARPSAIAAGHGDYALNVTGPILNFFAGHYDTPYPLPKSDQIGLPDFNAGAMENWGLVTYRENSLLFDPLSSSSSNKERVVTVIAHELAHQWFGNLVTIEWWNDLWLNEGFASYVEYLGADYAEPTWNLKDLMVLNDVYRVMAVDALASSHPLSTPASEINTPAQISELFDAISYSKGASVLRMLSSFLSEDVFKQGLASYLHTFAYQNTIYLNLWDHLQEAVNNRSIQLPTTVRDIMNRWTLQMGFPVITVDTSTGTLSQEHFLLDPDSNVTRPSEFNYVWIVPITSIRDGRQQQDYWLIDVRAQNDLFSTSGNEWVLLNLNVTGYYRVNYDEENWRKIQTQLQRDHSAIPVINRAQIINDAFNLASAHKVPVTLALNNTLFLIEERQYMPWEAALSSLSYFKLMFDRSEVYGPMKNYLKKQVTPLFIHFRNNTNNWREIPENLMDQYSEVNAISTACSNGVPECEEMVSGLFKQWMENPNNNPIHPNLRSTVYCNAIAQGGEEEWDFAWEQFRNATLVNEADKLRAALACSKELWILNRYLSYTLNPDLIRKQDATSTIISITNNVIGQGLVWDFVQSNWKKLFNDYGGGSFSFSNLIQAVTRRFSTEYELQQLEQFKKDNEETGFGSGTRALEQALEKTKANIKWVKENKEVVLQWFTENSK
T1 sequence (P15144 whole entry): as above

“Example 2: peptide of SEQ ID NO: 1 labeled with FITC, bound via an Ahx linker at the N-terminus ({FITC}-[Ahx]KDNRGNLLQCVCTGNGRGEWKC; cysteine pairing not given here)”: the “increase in the dead cell rate vs control” value is “not observed” in the assay on Gin-1 cells [1]; “significant difference at the level of 1%” with HL-60 cells [2]; “significant difference at the level of 1%” with Hos cells [3]; “significant difference at the level of 5%” in the assay on THP-1 cells [4]; “significant difference at the level of 1%” with U937 cells [5]; “significant difference was recognized at the level of 1%” with HuH7 cells (50 μg/mL, 9, 16 or 23 days). The “increase in the dead cell rate vs control” value with A549 cells (50 μg/mL, 9, 16 or 23 days) is on record as “significant difference was recognized at the level of 1%”; with MIA Paca2 cells (50 μg/mL, 9, 16 or 23 days), “significant difference was recognized at the level of 1%”. In addition, the “colocalization with CD13 (overlay images)” value in the assay with CD13 on HT-1080 cells and with CD13 on Gin-1 cells was “colocalized” throughout. For the same substance, the “luminescence of the peptide (green) on cells” value in the assay with CD13 on HT-1080 cells and in the assay with CD13 on Gin-1 cells was “strong” each time. Moreover, the intracellular localization entry was “remain still in the cytoplasm” with Gin-1 cells [6]; “transfer to a nucleus and bind to a chromosome DNA” in the assay with HL-60 cells [7]; “transfer to a nucleus and bind to a chromosome DNA” with Hos cells [8]; “transfer to a nucleus and bind to a chromosome DNA” in the assay with THP-1 cells [9]; “transfer to a nucleus and bind to a chromosome DNA” in the assay with U937 cells [10]. The “effect of administration (dead cell rate) on day 9 compared with later days” value in the assay with HuH7 cells (50 μg/mL) is “substantially same as that of days 16 and 23”. Besides, the dead cell rate is given as about 50% in the assay with A549 cells (day 9); about 60% in the assay on A549 cells (day 16); at least 80% in the assay on A549 cells (day 21); “about 10%” in the assay on MIA Paca2 cells (day 9); about 50% in the assay on MIA Paca2 cells (day 16); “about 80%” in the assay with MIA Paca2 cells (day 23).

These data come from patent publication US12472226B2, “Cell-permeable peptide” (priority 2019, dated 2025).
